# In EP1206258B1, “COMPOSITIONS CONTAINING ESTERS FOR TREATING PARASITIC INFESTATIONS OF ORGANISMS” (priority 1999, dated 2001):
# Columns and labels:
# Aspergillus nidulans = assay: growth inhibition test on SAB agar, A. nidulans; format: cell-based
# Description: (§1) The antifungal activity of ethyl trans-cinnamate against a number of different fungi was investigated by means of in a simple growth inhibition test.
# (§2) The following quantities of Ethyl trans-Cinnamate were added to Sabourand Dextrose agar (SAB); 50 ml L^-1, 4ml L^-1, 2ml L^-1, 1ml L^-1, 400 µl L^-1, 200 µl L^-1 and 40 µl L^-1. […] These were then autoclaved and poured into standard Petri dishes. […] Duplicate plates of each concentration, plus control plates containing only SAB Agar, where then separately inoculated with, four different species of fungi, these were Aspergillus nidulans, Penicillium digitatum, Rhizopus arrhizus and Fusarium culmorum. Inoculation was carried out using a single stab at the centre of each Petri dish. The plates were then incubated at 30°C for 6 days and daily measurements of mycobial growth where taken every 24 hours.
# Fusarium culmorum = assay: growth inhibition test on SAB agar, F. culmorum; format: cell-based
# Description: as §1, §2
# mealworms, T.molibr = assay: filter paper treatment of mealworms; conditions: 5 mealworms
# Text: Additionally, it was also noted that Ethyl cinnamate is toxic to insects, at least mealworms, T.molibr. […] 5 mealworms were placed onto each filter paper treatment. Although all were of the same instar, the 10-1 individuals were slightly larger. […] 10-7 did die. Therefore, the size of larvae appears to be important.
compound,measurement,setting,value
CCOC(=O)/C=C/c1ccccc1 [trans-cinnamic acid ethyl ester],Level of Radial Growth (mm) of A. nidulans,"Aspergillus nidulans; 1ml L^-1, Day 1",0 mm
same,Level of Radial Growth (mm) of A. nidulans,"Aspergillus nidulans; 1ml L^-1, Day 2",0 mm
same,Level of Radial Growth (mm) of A. nidulans,"Aspergillus nidulans; 1ml L^-1, Day 3",6.0 mm
same,Level of Radial Growth (mm) of A. nidulans,"Aspergillus nidulans; 1ml L^-1, Day 4",11.5 mm
same,Level of Radial Growth (mm) of A. nidulans,"Aspergillus nidulans; 1ml L^-1, Day 5",16.5 mm
same,Level of Radial Growth (mm) of A. nidulans,"Aspergillus nidulans; 1ml L^-1, Day 6",22.0 mm
same,Level of Radial Growth (mm) of A. nidulans,"Aspergillus nidulans; 2ml L^-1, Day 1",0 mm
same,Level of Radial Growth (mm) of A. nidulans,"Aspergillus nidulans; 2ml L^-1, Day 2",0 mm
same,Level of Radial Growth (mm) of A. nidulans,"Aspergillus nidulans; 2ml L^-1, Day 3",0 mm
same,Level of Radial Growth (mm) of A. nidulans,"Aspergillus nidulans; 2ml L^-1, Day 4",0 mm
same,Level of Radial Growth (mm) of A. nidulans,"Aspergillus nidulans; 2ml L^-1, Day 5",6.5 mm
same,Level of Radial Growth (mm) of A. nidulans,"Aspergillus nidulans; 2ml L^-1, Day 6",12.5 mm
same,Level of Radial Growth (mm) of A. nidulans,"Aspergillus nidulans; 4ml L^-1, Day 1",0 mm
same,Level of Radial Growth (mm) of A. nidulans,"Aspergillus nidulans; 4ml L^-1, Day 2",0 mm
same,Level of Radial Growth (mm) of A. nidulans,"Aspergillus nidulans; 4ml L^-1, Day 3",0 mm
same,Level of Radial Growth (mm) of A. nidulans,"Aspergillus nidulans; 4ml L^-1, Day 4",0 mm
same,Level of Radial Growth (mm) of A. nidulans,"Aspergillus nidulans; 4ml L^-1, Day 5",0 mm
same,Level of Radial Growth (mm) of A. nidulans,"Aspergillus nidulans; 4ml L^-1, Day 6",4.5 mm
same,Level of Radial Growth (mm) of A. nidulans,"Aspergillus nidulans; 40µl L^-1, Day 1",0 mm
same,Level of Radial Growth (mm) of A. nidulans,"Aspergillus nidulans; 40µl L^-1, Day 2",12.0 mm
same,Level of Radial Growth (mm) of A. nidulans,"Aspergillus nidulans; 40µl L^-1, Day 3",23.0 mm
same,Level of Radial Growth (mm) of A. nidulans,"Aspergillus nidulans; 40µl L^-1, Day 4",27.0 mm
same,Level of Radial Growth (mm) of A. nidulans,"Aspergillus nidulans; 40µl L^-1, Day 5",32.5 mm
same,Level of Radial Growth (mm) of A. nidulans,"Aspergillus nidulans; 40µl L^-1, Day 6",38 mm
same,inhibition of growth,Aspergillus nidulans; 50ml L-^1 level,complete inhibition of growth
same,Level of Radial Growth (mm) of A. nidulans,"Aspergillus nidulans; 50 ml L^-1, Day 1",0 mm
same,Level of Radial Growth (mm) of A. nidulans,"Aspergillus nidulans; 50 ml L^-1, Day 2",0 mm
same,Level of Radial Growth (mm) of A. nidulans,"Aspergillus nidulans; 50 ml L^-1, Day 3",0 mm
same,Level of Radial Growth (mm) of A. nidulans,"Aspergillus nidulans; 50 ml L^-1, Day 4",0 mm
same,Level of Radial Growth (mm) of A. nidulans,"Aspergillus nidulans; 50 ml L^-1, Day 5",0 mm
same,Level of Radial Growth (mm) of A. nidulans,"Aspergillus nidulans; 50 ml L^-1, Day 6",0 mm
same,Level of Radial Growth (mm) of A. nidulans,"Aspergillus nidulans; 200µl L^-1, Day 1",0 mm
same,Level of Radial Growth (mm) of A. nidulans,"Aspergillus nidulans; 200µl L^-1, Day 2",9.5 mm
same,Level of Radial Growth (mm) of A. nidulans,"Aspergillus nidulans; 200µl L^-1, Day 3",16.5 mm
same,Level of Radial Growth (mm) of A. nidulans,"Aspergillus nidulans; 200µl L^-1, Day 4",23.0 mm
same,Level of Radial Growth (mm) of A. nidulans,"Aspergillus nidulans; 200µl L^-1, Day 5",28.0 mm
same,Level of Radial Growth (mm) of A. nidulans,"Aspergillus nidulans; 200µl L^-1, Day 6",34.5 mm
same,Level of Radial Growth (mm) of A. nidulans,"Aspergillus nidulans; 400µl L^-1, Day 1",0 mm
same,Level of Radial Growth (mm) of A. nidulans,"Aspergillus nidulans; 400µl L^-1, Day 2",5.5 mm
same,Level of Radial Growth (mm) of A. nidulans,"Aspergillus nidulans; 400µl L^-1, Day 3",11.5 mm
same,Level of Radial Growth (mm) of A. nidulans,"Aspergillus nidulans; 400µl L^-1, Day 4",18.0 mm
same,Level of Radial Growth (mm) of A. nidulans,"Aspergillus nidulans; 400µl L^-1, Day 5",24.5 mm
same,Level of Radial Growth (mm) of A. nidulans,"Aspergillus nidulans; 400µl L^-1, Day 6",30.0 mm
same,Level of Radial Growth (mm) of F. culmorum,"Fusarium culmorum; 1ml L^-1, Day 1",0 mm
same,Level of Radial Growth (mm) of F. culmorum,"Fusarium culmorum; 1ml L^-1, Day 2",0 mm
same,Level of Radial Growth (mm) of F. culmorum,"Fusarium culmorum; 1ml L^-1, Day 3",0 mm
same,Level of Radial Growth (mm) of F. culmorum,"Fusarium culmorum; 1ml L^-1, Day 4",0 mm
same,Level of Radial Growth (mm) of F. culmorum,"Fusarium culmorum; 1ml L^-1, Day 5",0 mm
same,Level of Radial Growth (mm) of F. culmorum,"Fusarium culmorum; 1ml L^-1, Day 6",0 mm
same,Level of Radial Growth (mm) of F. culmorum,"Fusarium culmorum; 2ml L^-1, Day 1",0 mm
same,Level of Radial Growth (mm) of F. culmorum,"Fusarium culmorum; 2ml L^-1, Day 2",0 mm
same,Level of Radial Growth (mm) of F. culmorum,"Fusarium culmorum; 2ml L^-1, Day 3",0 mm
same,Level of Radial Growth (mm) of F. culmorum,"Fusarium culmorum; 2ml L^-1, Day 4",0 mm
same,Level of Radial Growth (mm) of F. culmorum,"Fusarium culmorum; 2ml L^-1, Day 5",0 mm
same,Level of Radial Growth (mm) of F. culmorum,"Fusarium culmorum; 2ml L^-1, Day 6",0 mm
same,Level of Radial Growth (mm) of F. culmorum,"Fusarium culmorum; 4ml L^-1, Day 1",0 mm
same,Level of Radial Growth (mm) of F. culmorum,"Fusarium culmorum; 4ml L^-1, Day 2",0 mm
same,Level of Radial Growth (mm) of F. culmorum,"Fusarium culmorum; 4ml L^-1, Day 3",0 mm
same,Level of Radial Growth (mm) of F. culmorum,"Fusarium culmorum; 4ml L^-1, Day 4",0 mm
same,Level of Radial Growth (mm) of F. culmorum,"Fusarium culmorum; 4ml L^-1, Day 5",0 mm
same,Level of Radial Growth (mm) of F. culmorum,"Fusarium culmorum; 4ml L^-1, Day 6",0 mm
same,Level of Radial Growth (mm) of F. culmorum,"Fusarium culmorum; 40µl L^-1, Day 1",0 mm
same,Level of Radial Growth (mm) of F. culmorum,"Fusarium culmorum; 40µl L^-1, Day 2",0 mm
same,Level of Radial Growth (mm) of F. culmorum,"Fusarium culmorum; 40µl L^-1, Day 3",1 mm
same,Level of Radial Growth (mm) of F. culmorum,"Fusarium culmorum; 40µl L^-1, Day 4",1 mm
same,Level of Radial Growth (mm) of F. culmorum,"Fusarium culmorum; 40µl L^-1, Day 5",2 mm
same,Level of Radial Growth (mm) of F. culmorum,"Fusarium culmorum; 40µl L^-1, Day 6",6 mm
same,duration of complete inhibition of growth,"Fusarium culmorum; 50ml L-^1 and higher doses, further experiments, data not shown",at least 8 days
same,inhibition of growth,Fusarium culmorum; 50ml L-^1 level,complete inhibition of growth
same,Level of Radial Growth (mm) of F. culmorum,"Fusarium culmorum; 50 ml L^-1, Day 1",0 mm
same,Level of Radial Growth (mm) of F. culmorum,"Fusarium culmorum; 50 ml L^-1, Day 2",0 mm
same,Level of Radial Growth (mm) of F. culmorum,"Fusarium culmorum; 50 ml L^-1, Day 3",0 mm
same,Level of Radial Growth (mm) of F. culmorum,"Fusarium culmorum; 50 ml L^-1, Day 4",0 mm
same,Level of Radial Growth (mm) of F. culmorum,"Fusarium culmorum; 50 ml L^-1, Day 5",0 mm
same,Level of Radial Growth (mm) of F. culmorum,"Fusarium culmorum; 50 ml L^-1, Day 6",0 mm
same,Level of Radial Growth (mm) of F. culmorum,"Fusarium culmorum; 200µl L^-1, Day 1",0 mm
same,Level of Radial Growth (mm) of F. culmorum,"Fusarium culmorum; 200µl L^-1, Day 2",0 mm
same,Level of Radial Growth (mm) of F. culmorum,"Fusarium culmorum; 200µl L^-1, Day 3",0 mm
same,Level of Radial Growth (mm) of F. culmorum,"Fusarium culmorum; 200µl L^-1, Day 4",1 mm
same,Level of Radial Growth (mm) of F. culmorum,"Fusarium culmorum; 200µl L^-1, Day 5",2 mm
same,Level of Radial Growth (mm) of F. culmorum,"Fusarium culmorum; 200µl L^-1, Day 6",6 mm
same,Level of Radial Growth (mm) of F. culmorum,"Fusarium culmorum; 400µl L^-1, Day 1",0 mm
same,Level of Radial Growth (mm) of F. culmorum,"Fusarium culmorum; 400µl L^-1, Day 2",0 mm
same,Level of Radial Growth (mm) of F. culmorum,"Fusarium culmorum; 400µl L^-1, Day 3",0 mm
same,Level of Radial Growth (mm) of F. culmorum,"Fusarium culmorum; 400µl L^-1, Day 4",1 mm
same,Level of Radial Growth (mm) of F. culmorum,"Fusarium culmorum; 400µl L^-1, Day 5",2 mm
same,Level of Radial Growth (mm) of F. culmorum,"Fusarium culmorum; 400µl L^-1, Day 6",6 mm
same,death of mealworms,"mealworms, T.molibr; concentration 10-1, slightly larger individuals, moulted after two days",did not die
same,death of mealworms,"mealworms, T.molibr; concentration printed 10-7",did die
